Assay results: ChEMBL document CHEMBL1143819, “In vitro activities of miltefosine and two novel antifungal biscationic salts against a panel of 77 dermatophytes” (2007)
Converted amounts (≈) assume the structure as drawn.

Experiments:
Assay type in all cases: functional
Conditions in all cases: 168 h
[1] = system: Trichophyton rubrum; experiment: Antifungal activity against Trichophyton rubrum after 7 days by broth microdilution test
[2] = system: Trichophyton mentagrophytes; experiment: Antifungal activity against Trichophyton mentagrophytes after 7 days by broth microdilution test
[3] = system: Trichophyton tonsurans; experiment: Antifungal activity against Trichophyton tonsurans after 7 days by broth microdilution test
[4] = system: Trichophyton soudanense; experiment: Antifungal activity against Trichophyton soudanense after 7 days by broth microdilution test
[5] = system: Trichophyton violaceum; experiment: Antifungal activity against Trichophyton violaceum after 7 days by broth microdilution test
[6] = system: Trichophyton; experiment: Antifungal activity against Trichophyton sp. after 7 days by broth microdilution test
[7] = system: Epidermophyton floccosum; experiment: Antifungal activity against Epidermophyton floccosum after 7 days by broth microdilution test
[8] = system: Microsporum canis; experiment: Antifungal activity against Microsporum canis after 7 days by broth microdilution test
[9] = system: Nannizzia gypsea; experiment: Antifungal activity against Microsporum gypseum after 7 days by broth microdilution test
[10] = system: Paraphyton cookei; experiment: Antifungal activity against Microsporum cookei after 7 days by broth microdilution test
[11] = system: Microsporum; experiment: Antifungal activity against Microsporum sp. after 7 days by broth microdilution test
[12] = system: Candida; experiment: Antifungal activity against Candida after 7 days by broth microdilution test
[13] = Antifungal activity against Cryptococcus after 7 days by broth microdilution test

MIC [1] | MIC50 [1] | MIC90 [1] | MIC [2] | MIC50 [2] | MIC90 [2] | MIC [3] | MIC50 [3] | MIC [4] | MIC [5] | MIC [6] | MIC50 [6] | MIC90 [6] | MIC [7] | MIC [8] | MIC [9] | MIC [10] | MIC [11] | MIC50 [11] | MIC90 [11] | SMILES | further results
0.547 µg/mL (≈ 1.34 µM) | 0.5 µg/mL (≈ 1.23 µM) | 1 µg/mL (≈ 2.45 µM) | 1.13 µg/mL (≈ 2.78 µM) | 1 µg/mL (≈ 2.45 µM) | 2 µg/mL (≈ 4.91 µM) | 0.398 µg/mL (≈ 0.977 µM) | 0.25 µg/mL (≈ 0.613 µM) | 0.52 µg/mL (≈ 1.28 µM) | 0.328 µg/mL (≈ 0.805 µM) | 0.652 µg/mL (≈ 1.6 µM) | 0.5 µg/mL (≈ 1.23 µM) | 1 µg/mL (≈ 2.45 µM) | 0.548 µg/mL (≈ 1.34 µM) | 0.555 µg/mL (≈ 1.36 µM) | 0.842 µg/mL (≈ 2.07 µM) | 0.866 µg/mL (≈ 2.12 µM) | 0.75 µg/mL (≈ 1.84 µM) | 1 µg/mL (≈ 2.45 µM) | 1 µg/mL (≈ 2.45 µM) | CCCCCCCCCCCCCCCCOP(=O)([O-])OCC[N+](C)(C)C [MILTEFOSINE] | MIC90 [3]: 1 µg/mL (≈ 2.45 µM)
0.05 µg/mL (≈ 0.157 µM) | 0.063 µg/mL (≈ 0.198 µM) | 0.125 µg/mL (≈ 0.394 µM) | 0.063 µg/mL (≈ 0.198 µM) | 0.063 µg/mL (≈ 0.198 µM) | 0.125 µg/mL (≈ 0.394 µM) | 0.04 µg/mL (≈ 0.126 µM) | 0.031 µg/mL (≈ 0.0976 µM) | 0.059 µg/mL (≈ 0.186 µM) | 0.063 µg/mL (≈ 0.198 µM) | 0.074 µg/mL (≈ 0.233 µM) | 0.063 µg/mL (≈ 0.198 µM) | 0.125 µg/mL (≈ 0.394 µM) | 0.081 µg/mL (≈ 0.255 µM) | 0.101 µg/mL (≈ 0.318 µM) | 0.084 µg/mL (≈ 0.265 µM) | 0.153 µg/mL (≈ 0.482 µM) | 0.106 µg/mL (≈ 0.334 µM) | 0.125 µg/mL (≈ 0.394 µM) | 0.125 µg/mL (≈ 0.394 µM) | CN(Cc1ccc(C(C)(C)C)cc1)Cc1cccc2ccccc12 [BUTENAFINE] | MIC90 [3]: 0.063 µg/mL (≈ 0.198 µM)
10.4 µg/mL | 8 µg/mL | 16 µg/mL | 9.01 µg/mL | 8 µg/mL | 16 µg/mL | 2.8 µg/mL | 2 µg/mL | 14.5 µg/mL | 8.96 µg/mL | 6.98 µg/mL | 8 µg/mL | 16 µg/mL | 7.63 µg/mL | 2.95 µg/mL | 2.41 µg/mL | 1.06 µg/mL | 2.24 µg/mL | 2 µg/mL | 4 µg/mL | CCCCCc1cc[n+](CCCCCCCCCCCC[n+]2ccc(CCCCC)cc2)cc1.[Cl-].[Cl-] | MIC90 [3]: 8 µg/mL; MIC [12]: 0.6 µg/mL; MIC [13]: 0.6 µg/mL
0.035 µg/mL (≈ 0.12 µM) | 0.031 µg/mL (≈ 0.106 µM) | 0.063 µg/mL (≈ 0.216 µM) | 0.03 µg/mL (≈ 0.103 µM) | 0.031 µg/mL (≈ 0.106 µM) | 0.063 µg/mL (≈ 0.216 µM) | 0.03 µg/mL (≈ 0.103 µM) |  | 0.039 µg/mL (≈ 0.134 µM) | 0.063 µg/mL (≈ 0.216 µM) | 0.044 µg/mL (≈ 0.151 µM) | 0.031 µg/mL (≈ 0.106 µM) | 0.063 µg/mL (≈ 0.216 µM) | 0.059 µg/mL (≈ 0.202 µM) | 0.083 µg/mL (≈ 0.285 µM) | 0.065 µg/mL (≈ 0.223 µM) | 0.077 µg/mL (≈ 0.264 µM) | 0.075 µg/mL (≈ 0.257 µM) | 0.063 µg/mL (≈ 0.216 µM) | 0.125 µg/mL (≈ 0.429 µM) | CN(C/C=C/C#CC(C)(C)C)Cc1cccc2ccccc12 [TERBINAFINE] | 
1.96 µg/mL (≈ 2.77 µM) | 2 µg/mL (≈ 2.83 µM) | 4 µg/mL (≈ 5.67 µM) | 1.68 µg/mL (≈ 2.38 µM) | 2 µg/mL (≈ 2.83 µM) | 4 µg/mL (≈ 5.67 µM) | 1.65 µg/mL (≈ 2.33 µM) | 2 µg/mL (≈ 2.83 µM) | 3.42 µg/mL (≈ 4.85 µM) | 3.3 µg/mL (≈ 4.68 µM) | 1.99 µg/mL (≈ 2.82 µM) | 2 µg/mL (≈ 2.83 µM) | 4 µg/mL (≈ 5.67 µM) | 0.226 µg/mL (≈ 0.32 µM) | 1.23 µg/mL (≈ 1.74 µM) | 3.68 µg/mL (≈ 5.22 µM) | 6 µg/mL (≈ 8.5 µM) | 2.63 µg/mL (≈ 3.73 µM) | 4 µg/mL (≈ 5.67 µM) | 8 µg/mL (≈ 11.3 µM) | CCC(C)n1ncn(-c2ccc(N3CCN(c4ccc(OCC5COC(Cn6cncn6)(c6ccc(Cl)cc6Cl)O5)cc4)CC3)cc2)c1=O (stereo not given) [ITRACONAZOLE] | MIC90 [3]: 4 µg/mL (≈ 5.67 µM)
